Source: patent US20200069691A1, “HETEROCYCLIC COMPOUNDS AS HIV PROTEASE INHIBITORS” (Merck Sharp & Dohme Corp., priority 2016, published 2020)

biological target: T1, wild-type HIV-1 protease (Human immunodeficiency virus type 1 group M subtype B, UniProt P04585); test: Assay for Inhibition of Microbial Expressed HIV Protease (peptide substrate cleavage, LC-MS/MS readout); assay type: biochemical; conditions: E. coli expressed wild-type HIV-1 protease, mean of at least two independent experiments, read-out: HIV Pr Enzyme HIV1 PR IC50
T1 construct: Escherichia coli expressed wild-type HIV-1 protease protein
In short: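 E. coli-expressed wild-type HIV-1 protease ([…]) was preincubated with inhibitor 30 min at room temperature in pH 5.5 acetate buffer (100 mM NaCl, 0.1% BSA). Then 400 μM octapeptide substrate was added and reacted 1 h at 30 °C; inhibition came from LC-MS/MS product peak areas, mean of ≥2 experiments.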

Row | Structure (SMILES) | IC50 [nM]
1 | CC(C)OCC(c1ccc(C(F)(F)F)c(C(=O)N2Cc3nccnc3C2)c1)N1C(=N)N[C@](CCC2CC2)(c2ccc(F)cc2)C1=O (stereo partly drawn) [Compound 38, (5R)-5-(2-cyclopropylethyl)-3-{1-[3-(5,7-dihydro-6H-pyrrolo[3,4-b]pyrazin-6-ylcarbonyl)-4-(trifluoromethyl)phenyl]-2-(1-methylethoxy)ethyl}-5-(4-fluorophenyl)-2-iminoimidazolidin-4-one] | 4.03
2 | N=C1NC(c2ccc(F)cc2)(c2ccc(F)cc2)C(=O)N1Cc1cccc(C(=O)N2CCN(C(=O)c3ccco3)CC2)c1 [Compound 267, 5,5-bis(4-fluorophenyl)-3-(3-{[4-(furan-2-ylcarbonyl)piperazin-1-yl]carbonyl}benzyl)-2-iminoimidazolidin-4-one] | 26.3
3 | CC(C)C[C@]1(c2ccccc2)NC(=N)N(Cc2cnc(C(F)(F)F)c(C(=O)N3Cc4nccnc4C3)c2)C1=O [Compound 390, (5R)-3-{[5-(5,7-dihydro-6H-pyrrolo[3,4-b]pyrazin-6-ylcarbonyl)-6-(trifluoromethyl)pyridin-3-yl]methyl}-2-imino-5-(2-methylpropyl)-5-phenylimidazolidin-4-one] | 8.45
4 | CC(C)CC1(c2cccc(F)c2)NC(=N)N(Cc2cccc(C(=O)N3Cc4nccnc4C3)c2)C1=O (stereo not shown) [Compound 210, 3-[3-(5,7-dihydro-6H-pyrrolo[3,4-b]pyrazin-6-ylcarbonyl)benzyl]-5-(3-fluorophenyl)-2-imino-5-(2-methylpropyl)imidazolidin-4-one] | 9.12
5 | CC(C)CCC1(c2ccc(F)cc2)NC(=N)N(Cc2ccc(C(F)(F)F)c(C(=O)N3Cc4nccnc4C3)c2)C1=O (stereo not shown) [Compound 146, 3-[3-(5,7-dihydro-6H-pyrrolo[3,4-b]pyrazin-6-ylcarbonyl)-4-(trifluoromethyl)benzyl]-5-(4-fluorophenyl)-2-imino-5-(3-methylbutyl)imidazolidin-4-one] | 4.07
6 | N=C1NC(c2ccccc2)(c2ccccc2)C(=O)N1Cc1cccc(C(=O)N2CCc3ccc(C(F)(F)F)cc3C2)c1 [Compound 334, 2-imino-5,5-diphenyl-3-(3-{[7-(trifluoromethyl)-3,4-dihydroisoquinolin-2(1H)-yl]carbonyl}benzyl) imidazolidin-4-one] | 70
7 | COC(=O)N1CCN(C(=O)c2cc(CN3C(=N)NC(c4ccccc4)(c4ccccc4)C3=O)ccc2C(F)(F)F)CC1 [Compound 161, methyl 4-({5-[(2-imino-5-oxo-4,4-diphenylimidazolidin-1-yl)methyl]-2-(trifluoromethyl)phenyl}-carbonyl)piperazine-1-carboxylate] | 25.2
8 | COc1ncc2c(n1)CN(C(=O)c1cccc(CN3C(=N)NC(c4ccc(F)cc4)(c4ccc(F)cc4)C3=O)c1)C2 [Compound 205, 5,5-bis(4-fluorophenyl)-2-imino-3-{3-[(2-methoxy-5,7-dihydro-6H-pyrrolo[3,4-d]pyrimidin-6-yl)carbonyl]benzyl} imidazolidin-4-one] | 7.67
9 | CN1CCN(C(=O)c2cc(F)cc(CN3C(=N)NC(c4ccccc4)(c4ccccc4)C3=O)c2)CC1=O [Compound 353, 4-({3-fluoro-5-[(2-imino-5-oxo-4,4-diphenylimidazolidin-1-yl)methyl]phenyl}carbonyl)-1-methylpiperazin-2-one] | 88.8
10 | COC(=O)N1CCN(C(=O)c2cccc(CN3C(=N)NC(c4ccc(F)cc4)(c4cccc(Br)c4)C3=O)c2)CC1 (stereo not shown) [Compound 240, methyl 4-[(3-{[4-(3-bromophenyl)-4-(4-fluorophenyl)-2-imino-5-oxoimidazolidin-1-yl]methyl}phenyl)carbonyl] piperazine-1-carboxylate] | 15.2
11 | N=C1NC(CCC2CC2)(c2cc(F)cc(F)c2)C(=O)N1Cc1ccc(C(F)(F)F)c(C(=O)N2CCn3c(nnc3C(F)(F)F)C2)c1 (stereo not shown) [Compound 91, 5-(2-cyclopropylethyl)-5-(3,5-difluorophenyl)-2-imino-3-[4-(trifluoromethyl)-3-{[3-(trifluoro-methyl)-5,6-dihydro[1,2,4]triazolo-[4,3-a]pyrazin-7(8H)-yl]carbonyl}-benzyl]imidazolidin-4-one] | 16.3
12 | CN(C)c1ccc(-c2ncc3c(n2)CN(C(=O)c2cc(CN4C(=N)N[C@](CCCC(F)(F)F)(c5ccc(F)cc5)C4=O)ccc2C(F)(F)F)C3)cn1 [Compound 16, (5R)-3-[3-({2-[6-(dimethylamino)pyridin-3-yl]-5,7-dihydro-6H-pyrrolo[3,4-d]pyrimidin-6-yl}carbonyl)-4-(trifluoromethyl)benzyl]-5-(4-fluorophenyl)-2-imino-5-(4,4,4-trifluorobutyl)imidazolidin-4-one] | 1.98
13 | CCOC(=O)c1cn2c(n1)CN(C(=O)c1cccc(CN3C(=N)NC(c4ccccc4)(c4ccccc4)C3=O)c1)CC2 [Compound 245, ethyl 7-({3-[(2-imino-5-oxo-4,4-diphenylimidazolidin-1-yl)methyl]phenyl}carbonyl)-5,6,7,8-tetrahydroimidazo[1,2-a]pyrazine-2-carboxylate] | 17.1
14 | C[C@@H](c1cccc(C(=O)N2Cc3ccccc3C2)c1)N1C(=N)NC(c2ccc(F)cc2)(c2ccc(F)cc2)C1=O [Compound 325, 3-{(1S)-1-[3-(1,3-dihydro-2H-isoindol-2-ylcarbonyl)phenyl]ethyl}-5,5-bis(4-fluorophenyl)-2-iminoimidazolidin-4-one] | 58.5
15 | N=C1NC(c2ccccc2)(c2ccccc2)C(=O)N1Cc1ccc(Cl)c(C(=O)N2CCC(n3c(=O)[nH]c4ccccc43)CC2)c1 [Compound 383, 1-[1-({2-chloro-5-[(2-imino-5-oxo-4,4-diphenylimidazolidin-1-yl)methyl]phenyl}carbonyl)piperidin-4-yl]-1,3-dihydro-2H-benzimidazol-2-one] | 14.7
16 | CC1CN(C(=O)c2cccc(CN3C(=N)NC(c4ccccc4)(c4ccccc4)C3=O)c2)Cc2nnc(C(F)(F)F)n21 (stereo not shown) [Compound 282, 2-imino-3-(3-{[5-methyl-3-(trifluoromethyl)-5,6-dihydro[1,2,4]triazolo[4,3-a]pyrazin-7(8H)-yl]carbonyl}benzyl)-5,5-diphenylimidazolidin-4-one] | 31.4
17 | CS(=O)(=O)N1CCN(C(=O)c2cc(CN3C(=N)N[C@](CCCC(F)(F)F)(c4ccc(F)cc4)C3=O)ccc2C(F)(F)F)CC1 [Compound 92, (5R)-5-(4-fluorophenyl)-2-imino-3-[3-{[4-(methylsulfonyl)piperazin-1-yl]carbonyl}-4-(trifluoromethyl)-benzyl]-5-(4,4,4-trifluorobutyl)-imidazolidin-4-one] | 17.3
18 | CC(C)CC1(c2ccccc2)NC(=N)N(Cc2cccc(C(=O)N3Cc4nccnc4C3)c2)C1=O (stereo not shown) [Compound 235, 3-[3-(5,7-dihydro-6H-pyrrolo[3,4-b]pyrazin-6-ylcarbonyl)benzyl]-2-imino-5-(2-methylpropyl)-5-phenylimidazolidin-4-one] | 14.4
19 | COC(=O)N1CCN(C(=O)c2cccc(CN3C(=N)NC(c4ccc(F)cc4)(c4cccc(C(N)=O)c4)C3=O)c2)CC1 (stereo not shown) [Compound 347, methyl 4-[(3-{[4-(3-carbamoylphenyl)-4-(4-fluorophenyl)-2-imino-5-oxoimidazolidin-1-yl]methyl}phenyl)-carbonyl]piperazine-1-carboxylate] | 83.3
